According to patent US10654794B2, “Fused tricyclic Γ-amino acid derivative, preparation method therefor, and medical use thereof” (SICHUAN HAISO PHARMACEUTICAL CO., LTD., priority 2016, dated 2020):
Where two headings read alike, the source gives them in different places.

Assays:
[1] = Pharmacokinetic evaluation in rats; format: in vivo, Male SD rats; conditions: rat; for AUC(0-inf) / half-life / bioavailability / Cmax: male, SD, plasma; for AUC(0-inf): read-out: Area under curve AUC0-inf; for half-life: read-out: Half-life t½ (converted); for bioavailability / Bioavailability F: Oral 10 mg/kg vs I.V. 5 mg/kg; for bioavailability: read-out: Bioavailability F; for Cmax: read-out: Blood Drug Level Cmax
Description: Pharmacokinetic Evaluation
Male SD rats (purchased from Vital River Laboratory Animal Technology Co., Ltd.), each weighing 180 to 240 g, were fasted overnight but allowed access to water. Three rats were administered by oral gavage at a dose of 10 mg/kg, and three rats were intravenously injected at 5 mg/kg. For the oral administration group, the compounds were formulated into 1.0 mg/mL suspensions with a 0.5% methylcellulose (MC) solution, and 200 μl blood was sampled before administration and 30 min, 1 h, 2 h, 4 h, 6 h, 8 h, 12 h and 24 h after administration. For the intravenous injection (I.V.) group, the compounds were formulated into 1.0 mg/ml solutions with physiological saline, and blood was sampled before administration and 5 min, 15 min, 30 min, 1 h, 2 h, 4 h, 8 h, 12 h and 24 h after administration. The blood samples were all anticoagulated with heparin, and centrifuged at 5500 rpm for 10 min to collect plasma, which was stored at −20° C. 10 μl plasma of rats for each of the time points was mixed with a 500 μl acetonitrile solution containing an internal standard, vortexed for 10 min, and centrifuged at 3700 rpm for 18 min. 50 μl of the supernatant was mixed with 100 μl water and vortexed for 10 min. 5 μl of the mixture was subjected to an LC-MS/MS analysis to determine the blood drug level of the parent drugs. The main pharmacokinetic parameters were analyzed using the software WinNonlin 6.3 at the non-compartment mode.

[2] = system: pain in diabetic peripheral neuropathy; conditions: patients with diabetic peripheral neuropathy; cited from earlier work

Q: For `NC[C@@]1(CC(=O)O)[C@@H]2C[C@@H]3CC[C@H]1[C@H]2C3` (racemic) [Example 1, (±)-2-((1R,2R,3S,6R,8R)-2-(aminomethyl)tricyclo[4.2.1.0^3,8]nonan-2-yl)acetic acid], which AUC(0-inf) ([1]; iv, 5 mg/kg, I.V., 5 mg/kg) is on record?
A: 6800 ng·h/mL

Q: What about the half-life ([1]; iv, 5 mg/kg, I.V., 5 mg/kg) of the same molecule?
A: 78 min

Q: And the bioavailability ([1]; po, 10 mg/kg)?
A: 95%

Q: And the AUC(0-inf) ([1]; po, 10 mg/kg, Oral, 10 mg/kg)?
A: 12900 ng·h/mL

Q: What about the Cmax ([1]; po, 10 mg/kg, Oral, 10 mg/kg) of the same molecule?
A: 3000 ng/mL

Q: What about the half-life ([1]; po, 10 mg/kg, Oral, 10 mg/kg) of the same molecule?
A: 138 min

Q: With `NC[C@@]1(CC(=O)O)[C@@H]2C[C@@H]3CC[C@H]1[C@H]2C3` (racemic) [Example 2, (±)-2-((1R,2R,3S,6R,8R)-2-(aminomethyl)tricyclo[4.2.1.0^3,8]nonan-2-yl)acetic acid benzenesulfonic acid (1:1)] as the molecule, how does the “Area under curve AUC0-inf” value ([1]; I.V., 5 mg/kg) read?
A: 8147 ng·h/mL

Q: What about the “Half-life t½” value ([1]; I.V., 5 mg/kg) of the same molecule?
A: 1.40 h

Q: And the “Bioavailability F” value [1]?
A: 83.0%

Q: And the “Area under curve AUC0-inf” value ([1]; Oral, 10 mg/kg)?
A: 13473 ng·h/mL

Q: What about the “Blood Drug Level Cmax” value ([1]; Oral, 10 mg/kg) of the same molecule?
A: 3789 ng/mL

Q: And the “Half-life t½” value ([1]; Oral, 10 mg/kg)?
A: 1.40 h

Q: For `NC[C@@]1(CC(=O)O)C2CC[C@H]3C[C@@H]2[C@@H]1C3` (single isomer, unassigned) [Example 5], which AUC(0-inf) ([1]; iv, 5 mg/kg, I.V., 5 mg/kg) is on record?
A: 8210 ng·h/mL

Q: What about the half-life ([1]; iv, 5 mg/kg, I.V., 5 mg/kg) of the same molecule?
A: 144 min

Q: What about the bioavailability ([1]; po, 10 mg/kg) of the same molecule?
A: 87%

Q: And the AUC(0-inf) ([1]; po, 10 mg/kg, Oral, 10 mg/kg)?
A: 14200 ng·h/mL

Q: And the Cmax ([1]; po, 10 mg/kg, Oral, 10 mg/kg)?
A: 4490 ng/mL

Q: What about the half-life ([1]; po, 10 mg/kg, Oral, 10 mg/kg) of the same molecule?
A: 96 min

Q: For `NCC1(CC(=O)O)C2CCC3CC2C1C3` (stereo not shown) [Example 6], which AUC(0-inf) ([1]; iv, 5 mg/kg, I.V., 5 mg/kg) is on record?
A: 8210 ng·h/mL

Q: And the half-life ([1]; iv, 5 mg/kg, I.V., 5 mg/kg)?
A: 144 min

Q: What about the bioavailability ([1]; po, 10 mg/kg) of the same molecule?
A: 83.2%

Q: And the AUC(0-inf) ([1]; po, 10 mg/kg, Oral, 10 mg/kg)?
A: 13700 ng·h/mL

Q: What about the Cmax ([1]; po, 10 mg/kg, Oral, 10 mg/kg) of the same molecule?
A: 3710 ng/mL

Q: What about the half-life ([1]; po, 10 mg/kg, Oral, 10 mg/kg) of the same molecule?
A: 84 min

Q: With `NC[C@@]1(CC(=O)O)[C@@H]2C[C@H]3C[C@@H]2[C@@H]1C3` [Example 7, 2-(4-(aminomethyl)tricyclo[3.2.1.0^3,6]octan-4-yl)acetic acid] as the molecule, how does the AUC(0-inf) ([1]; iv, 5 mg/kg, I.V., 5 mg/kg) read?
A: 11800 ng·h/mL

Q: And the half-life ([1]; iv, 5 mg/kg, I.V., 5 mg/kg)?
A: 72 min

Q: What about the bioavailability ([1]; po, 10 mg/kg) of the same molecule?
A: 97%

Q: What about the AUC(0-inf) ([1]; po, 10 mg/kg, Oral, 10 mg/kg) of the same molecule?
A: 23000 ng·h/mL

Q: And the Cmax ([1]; po, 10 mg/kg, Oral, 10 mg/kg)?
A: 9140 ng/mL

Q: What about the half-life ([1]; po, 10 mg/kg, Oral, 10 mg/kg) of the same molecule?
A: 66 min

Q: For `NC[C@@]1(CC(=O)O)[C@@H]2C[C@H]3C[C@@H]2[C@@H]1C3` [Example 8, 2-(4-(aminomethyl)tricyclo[3.2.1.0^3,6]octan-4-yl)acetic acid benzenesulfonic acid (1:1)], which “Area under curve AUC0-inf” value ([1]; I.V., 5 mg/kg) is on record?
A: 11788 ng·h/mL

Q: And the “Half-life t½” value ([1]; I.V., 5 mg/kg)?
A: 1.20 h

Q: And the “Bioavailability F” value [1]?
A: 107.9%

Q: And the “Area under curve AUC0-inf” value ([1]; Oral, 10 mg/kg)?
A: 25443 ng·h/mL

Q: And the “Blood Drug Level Cmax” value ([1]; Oral, 10 mg/kg)?
A: 8004 ng/mL

Q: What about the “Half-life t½” value ([1]; Oral, 10 mg/kg) of the same molecule?
A: 2.10 h

Q: Which “proportion of patients whose pain is relieved to a great extent” value [2] does the source give for `NCC1(CC(=O)O)CCCCC1` [gabapentin] here?
A: approximately 60%
